Assay results as given in patent EP3002287B1, “Thiochromeno[2,3-c]quinolin-12-one derivatives and their use as topoisomerase inhibitors” (National Defense Medical Center, priority 2014, dated 2016).

Experiments:
[1] = system: NCI-H460; test: NCI in vitro 60-cell drug screen (SRB assay); assay type: cell-based; details: NCI-H460 (Non-small cell lung cancer); 10^-5 molar concentration; 48 hours
[2] = system: HT29; test: NCI in vitro 60-cell drug screen (SRB assay); assay type: cell-based; details: HT29 (Colon cancer); 10^-5 molar concentration; 48 hours
[3] = system: OVCAR-5; test: NCI in vitro 60-cell drug screen (SRB assay); assay type: cell-based; details: OVCAR-5 (Ovarian cancer); 10^-5 molar concentration; 48 hours
[4] = system: HCC-2998; test: NCI in vitro 60-cell drug screen (SRB assay); assay type: cell-based; details: HCC-2998 (Colon cancer); 10^-5 molar concentration; 48 hours
[5] = system: IGROV1; test: NCI in vitro 60-cell drug screen (SRB assay); assay type: cell-based; details: IGROV1 (Ovarian cancer); 10^-5 molar concentration; 48 hours
[6] = system: OVCAR-8; test: NCI in vitro 60-cell drug screen (SRB assay); assay type: cell-based; details: OVCAR-8 (Ovarian cancer); 10^-5 molar concentration; 48 hours
[7] = system: TK-10; test: NCI in vitro 60-cell drug screen (SRB assay); assay type: cell-based; details: TK-10 (Renal cancer); 10^-5 molar concentration; 48 hours
[8] = system: HOP-92; test: NCI in vitro 60-cell drug screen (SRB assay); assay type: cell-based; details: HOP-92 (Non-small cell lung cancer); 10^-5 molar concentration; 48 hours
[9] = system: RPMI-8226; test: NCI in vitro 60-cell drug screen (SRB assay); assay type: cell-based; details: RPMI-8226 (Leukemia); 10^-5 molar concentration; 48 hours
[10] = system: LOX IMVI; test: NCI in vitro 60-cell drug screen (SRB assay); assay type: cell-based; details: LOX IMVI (Melanoma); 10^-5 molar concentration; 48 hours
[11] = system: U251; test: NCI in vitro 60-cell drug screen (SRB assay); assay type: cell-based; details: U251 (CNS cancer); 10^-5 molar concentration; 48 hours
[12] = system: K-562; test: NCI in vitro 60-cell drug screen (SRB assay); assay type: cell-based; details: K-562 (Leukemia); 10^-5 molar concentration; 48 hours
[13] = system: HCT-15; test: NCI in vitro 60-cell drug screen (SRB assay); assay type: cell-based; details: HCT-15 (Colon cancer); 10^-5 molar concentration; 48 hours
[14] = system: ACHN; test: NCI in vitro 60-cell drug screen (SRB assay); assay type: cell-based; details: ACHN (Renal cancer); 10^-5 molar concentration; 48 hours
[15] = system: NCI-H522; test: NCI in vitro 60-cell drug screen (SRB assay); assay type: cell-based; details: NCI-H522 (Non-small cell lung cancer); 10^-5 molar concentration; 48 hours
[16] = system: NCI-H322M; test: NCI in vitro 60-cell drug screen (SRB assay); assay type: cell-based; details: NCI-H322M (Non-small cell lung cancer); 10^-5 molar concentration; 48 hours
[17] = system: SK-OV-3; test: NCI in vitro 60-cell drug screen (SRB assay); assay type: cell-based; details: SK-OV-3 (Ovarian cancer); 10^-5 molar concentration; 48 hours
[18] = system: HOP-62; test: NCI in vitro 60-cell drug screen (SRB assay); assay type: cell-based; details: HOP-62 (Non-small cell lung cancer); 10^-5 molar concentration; 48 hours
[19] = system: COLO 205; test: NCI in vitro 60-cell drug screen (SRB assay); assay type: cell-based; details: COLO 205 (Colon cancer); 10^-5 molar concentration; 48 hours
[20] = system: RXF 393; test: NCI in vitro 60-cell drug screen (SRB assay); assay type: cell-based; details: RXF 393 (Renal cancer); 10^-5 molar concentration; 48 hours
[21] = system: 60 cell lines; test: NCI in vitro 60-cell drug screen (SRB assay), whole panel statistics; details: mean over the cell panel; 10^-5 molar concentration; 48 hours
[22] = system: SK-MEL-5; test: NCI in vitro 60-cell drug screen (SRB assay); assay type: cell-based; details: SK-MEL-5 (Melanoma); 10^-5 molar concentration; 48 hours
[23] = system: BT-549; test: NCI in vitro 60-cell drug screen (SRB assay); assay type: cell-based; details: BT-549 (Breast cancer); 10^-5 molar concentration; 48 hours
[24] = system: SF-539; test: NCI in vitro 60-cell drug screen (SRB assay); assay type: cell-based; details: SF-539 (CNS cancer); 10^-5 molar concentration; 48 hours
[25] = system: SN12C; test: NCI in vitro 60-cell drug screen (SRB assay); assay type: cell-based; details: SN12C (Renal cancer); 10^-5 molar concentration; 48 hours
[26] = system: NCI/ADR-RES; test: NCI in vitro 60-cell drug screen (SRB assay); assay type: cell-based; details: NCI/ADR-RES (Ovarian cancer); 10^-5 molar concentration; 48 hours
[27] = system: MALME-3M; test: NCI in vitro 60-cell drug screen (SRB assay); assay type: cell-based; details: MALME-3M (Melanoma); 10^-5 molar concentration; 48 hours
[28] = system: DU-145; test: NCI in vitro 60-cell drug screen (SRB assay); assay type: cell-based; details: DU-145 (Prostate cancer); 10^-5 molar concentration; 48 hours
[29] = system: T-47D; test: NCI in vitro 60-cell drug screen (SRB assay); assay type: cell-based; details: T-47D (Breast cancer); 10^-5 molar concentration; 48 hours
[30] = system: SNB-75; test: NCI in vitro 60-cell drug screen (SRB assay); assay type: cell-based; details: SNB-75 (CNS cancer); 10^-5 molar concentration; 48 hours
[31] = system: HL-60(TB); test: NCI in vitro 60-cell drug screen (SRB assay); assay type: cell-based; details: HL-60(TB) (Leukemia); 10^-5 molar concentration; 48 hours
[32] = system: OVCAR-3; test: NCI in vitro 60-cell drug screen (SRB assay); assay type: cell-based; details: OVCAR-3 (Ovarian cancer); 10^-5 molar concentration; 48 hours
[33] = system: SNB-19; test: NCI in vitro 60-cell drug screen (SRB assay); assay type: cell-based; details: SNB-19 (CNS cancer); 10^-5 molar concentration; 48 hours

| Compound | Growth percent [1] | Growth percent [2] | Growth percent [3] | Growth percent [4] | Growth percent [5] | Growth percent [6] | Growth percent [7] | Growth percent [8] | Growth percent [9] | Growth percent [10] | Growth percent [11] | Growth percent [12] | Growth percent [13] | Growth percent [14] | Growth percent [15] | Growth percent [16] | Growth percent [17] | Growth percent [18] | Growth percent [19] | Growth percent [20] | also measured |
| --- | --- | --- | --- | --- | --- | --- | --- | --- | --- | --- | --- | --- | --- | --- | --- | --- | --- | --- | --- | --- | --- |
| O=c1c2cc(Cl)ccc2sc2c(O)nc3ccccc3c12 [Compound 4, 10-Chloro-6-hydroxy-12H-thiochromeno[2,3-c]quinolin-12-one] | 96.92% | 96.78% | 111.17% | 101.48% | 78.35% | 100.55% | 113.26% | 93.13% | 100.99% | 92.07% | 101.85% | 107.08% | 98.11% | 95.52% | 86.60% | 90.87% | 94.40% | 90.80% | 93.69% | 116.94% | Growth percent, Mean [21]: 97.17%; Growth percent [22]: 100.69%; Growth percent [23]: 85.17%; Growth percent [24]: 93.21%; Growth percent [25]: 101.14%; Growth percent [26]: 96.84%; Growth percent [27]: 93.26%; Growth percent [28]: 99.80%; Growth percent [29]: 77.89%; Growth percent [30]: 66.63%; Growth percent [31]: 109.82%; Growth percent [32]: 106.37%; Growth percent [33]: 101.37% |
| O=c1c2cc(Cl)ccc2sc2c(N3CCN(CCO)CC3)nc3ccccc3c12 [Compound 10, 10-Chloro-6-(4-(2-hydroxyethyl)piperazin-1-yl)-12H-thiochrom eno[2,3-c]quinolin-12one] | 93.71% | 63.19% | 95.70% | 103.49% | 71.67% | 84.95% | 93.19% | 39.64% | 84.87% | 87.79% | 83.31% | 35.47% | 82.92% | 83.05% | 94.76% | 82.85% | 95.12% | 67.83% | 88.90% | 70.31% | Growth percent, Mean [21]: 84.06%; Growth percent [22]: 94.13%; Growth percent [23]: 90.05%; Growth percent [24]: 86.18%; Growth percent [25]: 86.81%; Growth percent [26]: 92.05%; Growth percent [27]: 119.20%; Growth percent [28]: 96.26%; Growth percent [29]: 87.22%; Growth percent [30]: 77.64%; Growth percent [31]: 93.81%; Growth percent [32]: 93.92%; Growth percent [33]: 84.81% |
| CN1CCN(c2nc3ccccc3c3c(=O)c4cc(Cl)ccc4sc23)CC1 [Compound 8, 10-Chloro-6-(4-methylpiperazin-1-yl)-12H-thiochromeno[2,3-c]q uinolin-12-one] | 96.05% | 78.65% | 98.14% | 96.87% | 80.08% | 89.44% | 97.07% | 17.97% | 91.11% | 87.47% | 92.52% | 72.98% | 93.94% | 89.73% | 98.78% | 77.04% | 75.11% | 49.41% | 90.06% | 88.57% | Growth percent, Mean [21]: 86.81%; Growth percent [22]: 99.54%; Growth percent [23]: 96.25%; Growth percent [24]: 85.30%; Growth percent [25]: 83.03%; Growth percent [26]: 81.35%; Growth percent [27]: 108.36%; Growth percent [28]: 103.45%; Growth percent [29]: 82.24%; Growth percent [30]: 42.15%; Growth percent [31]: 96.19%; Growth percent [32]: 89.13%; Growth percent [33]: 87.07% |
| O=c1c2cc(Cl)ccc2sc2c(N3CCOCC3)nc3ccccc3c12 [Compound 13, 10-Chloro-6-morpholino-12H-thiochromeno[2,3-c]quinolin-12-one] | 99.28% | 83.73% | 95.97% | 108.75% | 80.90% | 83.66% | 86.24% | 60.43% | 89.54% | 89.82% | 98.58% | 81.18% | 93.81% | 82.54% | 89.60% | 88.41% | 77.18% | 70.77% | 99.24% | 108.61% | Growth percent, Mean [21]: 90.52%; Growth percent [22]: 95.88%; Growth percent [23]: 113.81%; Growth percent [24]: 82.38%; Growth percent [25]: 96.81%; Growth percent [26]: 98.16%; Growth percent [27]: 118.84%; Growth percent [28]: 110.81%; Growth percent [29]: 80.00%; Growth percent [30]: 76.88%; Growth percent [31]: 93.38%; Growth percent [32]: 96.54%; Growth percent [33]: 99.37% |
| O=c1c2cc(Cl)ccc2sc2c(N3CCN(Cc4ccccc4)CC3)nc3ccccc3c12 [Compound 11, 6-(4-Benzylpiperazin-1-yl)-10-chloro-12H-thiochromeno[2,3-c]q uinolin-12-one] | 95.57% | 102.71% | 111.92% | 99.32% | 93.49% | 98.54% | 124.99% | 70.17% | 96.63% | 94.22% | 96.69% | 87.84% | 94.51% | 96.39% | 96.69% | 88.92% | 94.79% | 87.72% | 105.64% | 100.71% | Growth percent, Mean [21]: 96.19%; Growth percent [22]: 98.38%; Growth percent [23]: 114.05%; Growth percent [24]: 108.56%; Growth percent [25]: 97.70%; Growth percent [26]: 98.31%; Growth percent [27]: 112.36%; Growth percent [28]: 111.61%; Growth percent [29]: 89.22%; Growth percent [30]: 82.62%; Growth percent [31]: 100.96%; Growth percent [32]: 101.69%; Growth percent [33]: 95.52% |
